From patent US12582672B2, “Vanadium compositions and methods for treatment of cancer” (THE BROAD INSTITUTE, INC., priority 2018, dated 2026)
“Also recorded” adds a separate entry of the source.

Columns and labels:
578 cancer cell lines = assay: PRISM multiplexed cellular viability assay; assay type: cell-based; conditions: for prediction of cell line sensitivity by SLC26A2 expression: more than 4,000 compounds profiled against 578 cancer cell lines
Protocol: Parental cell lines were obtained from the Cancer Cell Line Encyclopedia (CCLE) project (1). PRISM cell line barcoding, pooling, and screening was performed as previously described with several improvements to the original method (2). First, the lentiviral vector was modified to encode the unique barcode identifier at the end of the puromycin resistance gene. This enables barcodes to be detected using a variant of the mRNA capture and Luminex detection method developed for the L1000 gene expression assay (3). Second, a set of ten inert barcodes were spiked-in to each well of each plate after cell lysis to control for variation in PCR amplification as detailed below.
Luminex technology produced .Ixb files containing data for each Luminex bead observed during detection. These .Ixb files were processed to compute Median Fluorescence Intensity (MFI) values, calculated as the median of the values obtained for all beads corresponding to a single PRISM barcode.
MFI values were log-transformed (logMFI) and used to perform basic quality control. To detect probable screening artifacts, logMFI values were centered to the median logMFI for each cell line on each plate in order to put the measurements from each cell line on the same scale. For each well on each plate, the median of these centered values was then standardized according to the global median and global MAD across all plate wells in the same position. Data from wells with a standardized score of greater than 5 or less than −5 were excluded from all further processing steps.
For each cell line on each plate, the distribution of MFI values observed for the DMSO-treated negative controls was compared to that of the positive controls using a robust form of the Strictly Standardized Mean Difference (SSMD*)′. Specifically, SSMD* was calculated as: […]
Data corresponding to SSMD values less than 2 were removed before calculating cell viability.
The data in the instant disclosure were produced according to two different screening protocols. In the PR500 protocol, ten inert barcodes were spiked-in to each well of each plate after cell lysis. For data produced using the PR500 protocol, normalized MFI (nMFI) values were computed by taking the ratio of each MFI value against the median of the inert barcodes within each well. For data produced before the PR500 protocol was introduced, nMFI values were set equal to MFI values.
Cell viability was calculated as the ratio of nMFI to the median of the nMFI from the DMSO-treated negative controls for each cell line on each plate. Batch effects produced from variable detection and assay conditions were then removed using ComBat (4). The final viability values were calculated as the median of the batch-corrected cell viabilities from biological replicates for each cell line, compound and dose.
Measures of dose response were obtained by fitting 3-parameter logistic curves to viability values for each compound and cell line using the R package ‘drc’. Following the practice of Smirnov and Safikhani (5), viability was truncated at 1.0 and fit as a function of drug concentration according to:
[formula] where all concentrations are in the natural logarithm scale. IC50 values were defined as the concentration c at which V(c)=0.5, given by the formula:
[formula] The Area Under the dose response Curve (AUC) was calculated using the normalized integral: […]
The formulation above puts AUC values on a scale between 0 and 1, where lower AUC values indicate increased sensitivity to the treatment.

[1] = system: SLC26A2 knockouts in A375, OVISE, and A2058 cell lines; assay: CellTiter-Glo cellular viability assay in CRISPR-Cas9 SLC26A2 knockout cell lines; assay type: cell-based; conditions: FIGS. 7A-7C
Text: XP003, XP023, psPAX, and pMD2.G vectors were acquired from the Broad Genetic Perturbation Platform (GPP). Oligos for sgRNAs designs were generated using Broad GPP sgRNA guide generator resource (on the World Wide Web at (www)broad institute.org/gpp/db/analvsis-tools/sgrna-design) and the respective oligos were synthesized by Integrated DNA Technologies. In order to clone the sgRNAs into either the XPR003 guide only or XPRO23 all-in-one crispr lentiviral expression systems the protocol available on the Broad GPP website (www.broadinstitute.org/gpp/db/resources/protocols) was followed.
In order to generate viral vectors, HEK293T cells were seeded in 6 well plates at a density of 1.5E6 cells per well. Cells were then transfected with a mixture of TranslT@-LT1 Transfection Reagent (MirusBio #M1R2304), psPAX2, pMD2.G, lentiviral plasmid diluted in Opti-MEM™ (Thermo #31985062). The following day media was changed DMEM (Thermo #10566016) with 30% FBS (Sigma 18A079). 72 hrs after transfection, virus containing media was collected and run through a 0.2 uM filter to remove cellular debris. Virus was aliquoted and stored short term at −20 C until infection day. […]
Cell viability was assayed using a modified manufacturer's protocol for CellTiter-Glo® (Promega #G7573). […] Luminescence was measured with an integration time of 0.1 s using Envision Microplates Reader (PERKIN ELMER #2105-0010). […]

[2] = diabetic rats; cited from earlier work
[3] = molecular target: T1, protein tyrosine phosphatase-1B (PTP-1B) (Homo sapiens, UniProt P18031); conditions: cited from earlier work
T1 sequence (P18031 1-435): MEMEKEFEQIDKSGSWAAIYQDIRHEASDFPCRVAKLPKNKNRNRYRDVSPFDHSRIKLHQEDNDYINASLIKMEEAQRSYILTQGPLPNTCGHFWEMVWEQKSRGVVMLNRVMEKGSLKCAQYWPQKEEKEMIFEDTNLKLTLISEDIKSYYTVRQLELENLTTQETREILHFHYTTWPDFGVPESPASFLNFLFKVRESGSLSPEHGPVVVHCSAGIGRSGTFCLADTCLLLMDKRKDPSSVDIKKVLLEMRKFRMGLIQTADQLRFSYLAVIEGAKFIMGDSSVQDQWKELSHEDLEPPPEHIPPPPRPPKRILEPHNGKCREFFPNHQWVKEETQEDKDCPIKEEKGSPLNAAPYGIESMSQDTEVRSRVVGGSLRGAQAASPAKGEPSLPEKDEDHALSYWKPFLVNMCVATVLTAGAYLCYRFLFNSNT

| SMILES | prediction of cell line sensitivity by SLC26A2 expression (578 cancer cell lines) | effect of SLC26A2 knockout on BMOV sensitivity (percent viability curves) [1] | selective killing of cancer cell lines (578 cancer cell lines; SLC26A2-high versus lower SLC26A2 expression cell lines) | glycaemia and insulin levels [2] | phosphatase inhibition [3] |
| --- | --- | --- | --- | --- | --- |
| CCc1occc(=O)c1[O][V](=[O])[O]c1c(CC)occc1=O [BEOV, bis(ethylmaltolato)oxovanadium(IV)] | high SLC26A2 transcriptional target gene expression predicted cell line sensitivity |  |  |  |  |
| CC(C)c1occc(=O)c1[O][V](=[O])[O]c1c(C(C)C)occc1=O [BIOV, bis(isopropylmaltolato)oxovanadium(IV)] | high SLC26A2 transcriptional target gene expression predicted cell line sensitivity |  |  |  |  |
| Cc1occc(=O)c1[O][V](=[O])[O]c1c(C)occc1=O [BMOV, bis(maltolato)oxovanadium(IV)] | high SLC26A2 transcriptional target gene expression predicted cell line sensitivity | SLC26A2 knockouts rescue BMOV sensitivity | selective killing of SLC26A2-high cancer cell lines; also recorded: selectively kills ovarian cancer cells, bone cancer cells, and melanoma cells | restore normoglycaemia without rising insulin levels | potent phosphatase inhibitor |
| CCCCc1occc(=O)c1[O][V](=[O])[O]c1c(CCCC)occc1=O [BnBOV, bis(n-butylmaltolato)oxovanadium(IV)] | high SLC26A2 transcriptional target gene expression predicted cell line sensitivity |  |  |  |  |
